Assay: molar heat capacity at constant pressure
Details: 100 kPa, Liquid, Flow calorimetry

O [water]
Details	molar heat capacity at constant pressure [J/K/mol]
298.15 K	75.66
303.15 K	75.57
308.15 K	75.54
313.15 K	75.5
318.15 K	75.47
323.15 K	75.45
328.15 K	75.45
333.15 K	75.47
338.15 K	75.5
343.15 K	75.57
348.15 K	75.66
353.15 K	75.77
358.15 K	75.9
363.15 K	76.02

From the NIST ThermoML archive (doi:10.1021/acs.jced.7b00483)
